{"source": "paper PMC4984800", "about": "“A first in man, dose-finding study of the mTORC1/mTORC2 inhibitor OSI-027 in patients with advanced solid malignancies” (British Journal of Cancer, 2016)", "assay": "First-in-human trial: pharmacokinetics in plasma and urine", "assay_type": "in vivo", "details": "for AUC(0-inf) / Cmax / half-life / AUC(0-t): human, plasma, oral, median (range); for half-life: read-out: T1/2 (converted); for AUC(0-t): read-out: AUC24hr", "experimental": "Blood and urine samples were collected at prespecified time points for 24 h after initial dose and at days 2–3 (S2) and after multiple doses on days 3–4 (S1) and 22–23 (S3) across dose levels. Predose samples were collected on days 8, 15 and 22. Urine samples were collected during cycle 1.\nDescriptive statistics were used to summarise the safety data, including all patients who received at least one dose of OSI-027. All patients who completed the pharmacokinetic sampling were included in the PK analyses, which used descriptive statistics to summarise AUC0–∞, AUC0–t, Cmax, Clast, Tmax, Tlast, %AUC extrapolated, T1/2, clearance (Cl/F) and volume of distribution (Vz/F). Exploratory analysis were planned to correlate pharmacodynamics and pharmacokinetics. Response to treatment was evaluated according to Response Evaluation Criteria in Solid Tumors (RECIST) ([Therasse et al, 2000]).", "key": {"[1]": {"details": "5 mg, Schedule 3, 5 mg, Day 1, N=3"}, "[2]": {"details": "5 mg, Schedule 3, 5 mg, Day 22, N=3"}, "[3]": {"details": "10 mg, Schedule 1, 10 mg, Day 1, N=6"}, "[4]": {"details": "10 mg, Schedule 1, 10 mg, Day 3, N=6"}, "[5]": {"details": "10 mg, Schedule 3, 10 mg, Day 1, N=3"}, "[6]": {"details": "10 mg, Schedule 3, 10 mg, Day 22, N=3"}, "[7]": {"details": "15 mg, Schedule 1, 15 mg, Day 1, N=4"}, "[8]": {"details": "15 mg, Schedule 1, 15 mg, Day 3, N=4"}, "[9]": {"details": "20 mg, Schedule 1, 20 mg, Day 1, N=4"}, "[10]": {"details": "20 mg, Schedule 1, 20 mg, Day 3, N=4"}, "[11]": {"details": "20 mg, Schedule 3, 20 mg, Day 1, N=6"}, "[12]": {"details": "20 mg, Schedule 3, 20 mg, Day 22, N=5"}, "[13]": {"details": "25 mg, Schedule 3, 25 mg, Day 1, N=3"}, "[14]": {"details": "25 mg, Schedule 3, 25 mg, Day 22, N=3"}, "[15]": {"details": "30 mg, Schedule 1, 30 mg, Day 1, N=3"}, "[16]": {"details": "30 mg, Schedule 1, 30 mg, Day 3, N=3"}, "[17]": {"details": "35 mg, Schedule 3, 35 mg, Day 1, N=4"}, "[18]": {"details": "35 mg, Schedule 3, 35 mg, Day 22, N=4"}}, "note": "Like-named read-outs stand apart in the source and are kept apart here.", "data": [{"smiles": "COc1cccc2cc(-c3nc([C@H]4CC[C@H](C(=O)O)CC4)n4ncnc(N)c34)[nH]c12", "note": "[OSI-027]", "values": [{"measurement": "accumulation", "setting": "after once daily / continuous dosing", "result": "minimal accumulation"}, {"measurement": "AUC(0-inf)", "setting": "[1]", "result": 2140, "unit": "ng·h/mL"}, {"measurement": "Cmax", "setting": "[1]", "result": 236, "unit": "ng/mL"}, {"measurement": "half-life", "setting": "[1]", "result": 7.89, "unit": "h"}, {"measurement": "Cmax", "setting": "[2]", "result": 266, "unit": "ng/mL"}, {"measurement": "AUC(0-t)", "setting": "[2]", "result": 2040, "unit": "ng·h/mL"}, {"measurement": "half-life", "setting": "[2]", "result": 6.85, "unit": "h"}, {"measurement": "AUC(0-inf)", "setting": "[3]", "result": 5130, "unit": "ng·h/mL"}, {"measurement": "Cmax", "setting": "[3]", "result": 646, "unit": "ng/mL"}, {"measurement": "half-life", "setting": "[3]", "result": 5.98, "unit": "h"}, {"measurement": "Cmax", "setting": "[4]", "result": 602, "unit": "ng/mL"}, {"measurement": "AUC(0-t)", "setting": "[4]", "result": 4860, "unit": "ng·h/mL"}, {"measurement": "half-life", "setting": "[4]", "result": 7.74, "unit": "h"}, {"measurement": "AUC(0-inf)", "setting": "10 mg, Schedule 2, 10 mg, N=4", "result": 5530, "unit": "ng·h/mL"}, {"measurement": "Cmax", "setting": "10 mg, Schedule 2, 10 mg, N=4", "result": 705, "unit": "ng/mL"}, {"measurement": "half-life", "setting": "10 mg, Schedule 2, 10 mg, N=4", "result": 12.3, "unit": "h"}, {"measurement": "AUC(0-inf)", "setting": "[5]", "result": 4300, "unit": "ng·h/mL"}, {"measurement": "Cmax", "setting": "[5]", "result": 547, "unit": "ng/mL"}, {"measurement": "half-life", "setting": "[5]", "result": 7.24, "unit": "h"}, {"measurement": "Cmax", "setting": "[6]", "result": 457, "unit": "ng/mL"}, {"measurement": "AUC(0-t)", "setting": "[6]", "result": 3720, "unit": "ng·h/mL"}, {"measurement": "half-life", "setting": "[6]", "result": 6.54, "unit": "h"}, {"measurement": "AUC(0-inf)", "setting": "[7]", "result": 8460, "unit": "ng·h/mL"}, {"measurement": "Cmax", "setting": "[7]", "result": 1170, "unit": "ng/mL"}, {"measurement": "half-life", "setting": "[7]", "result": 7.12, "unit": "h"}, {"measurement": "Cmax", "setting": "[8]", "result": 1270, "unit": "ng/mL"}, {"measurement": "AUC(0-t)", "setting": "[8]", "result": 9210, "unit": "ng·h/mL"}, {"measurement": "half-life", "setting": "[8]", "result": 7.69, "unit": "h"}, {"measurement": "AUC(0-inf)", "setting": "15 mg, Schedule 2, 15 mg, N=7", "result": 25900, "unit": "ng·h/mL"}, {"measurement": "Cmax", "setting": "15 mg, Schedule 2, 15 mg, N=7", "result": 894, "unit": "ng/mL"}, {"measurement": "half-life", "setting": "15 mg, Schedule 2, 15 mg, N=7", "result": 19.3, "unit": "h"}, {"measurement": "AUC(0-inf)", "setting": "[9]", "result": 5780, "unit": "ng·h/mL"}, {"measurement": "Cmax", "setting": "[9]", "result": 804, "unit": "ng/mL"}, {"measurement": "half-life", "setting": "[9]", "result": 5.09, "unit": "h"}, {"measurement": "Cmax", "setting": "[10]", "result": 1350, "unit": "ng/mL"}, {"measurement": "AUC(0-t)", "setting": "[10]", "result": 5850, "unit": "ng·h/mL"}, {"measurement": "half-life", "setting": "[10]", "result": 5.97, "unit": "h"}, {"measurement": "AUC(0-inf)", "setting": "20 mg, Schedule 2, 20 mg, N=3", "result": 9840, "unit": "ng·h/mL"}, {"measurement": "Cmax", "setting": "20 mg, Schedule 2, 20 mg, N=3", "result": 1240, "unit": "ng/mL"}, {"measurement": "half-life", "setting": "20 mg, Schedule 2, 20 mg, N=3", "result": 7.65, "unit": "h"}, {"measurement": "AUC(0-inf)", "setting": "[11]", "result": 9460, "unit": "ng·h/mL"}, {"measurement": "Cmax", "setting": "[11]", "result": 1300, "unit": "ng/mL"}, {"measurement": "half-life", "setting": "[11]", "result": 7.03, "unit": "h"}, {"measurement": "Cmax", "setting": "[12]", "result": 1540, "unit": "ng/mL"}, {"measurement": "AUC(0-t)", "setting": "[12]", "result": 13700, "unit": "ng·h/mL"}, {"measurement": "half-life", "setting": "[12]", "result": 9.67, "unit": "h"}, {"measurement": "AUC(0-inf)", "setting": "[13]", "result": 25100, "unit": "ng·h/mL"}, {"measurement": "Cmax", "setting": "[13]", "result": 1640, "unit": "ng/mL"}, {"measurement": "half-life", "setting": "[13]", "result": 11.1, "unit": "h"}, {"measurement": "Cmax", "setting": "[14]", "result": 1790, "unit": "ng/mL"}, {"measurement": "AUC(0-t)", "setting": "[14]", "result": 15200, "unit": "ng·h/mL"}, {"measurement": "half-life", "setting": "[14]", "result": 15, "unit": "h"}, {"measurement": "AUC(0-inf)", "setting": "[15]", "result": 45100, "unit": "ng·h/mL"}, {"measurement": "Cmax", "setting": "[15]", "result": 3620, "unit": "ng/mL"}, {"measurement": "half-life", "setting": "[15]", "result": 11.3, "unit": "h"}, {"measurement": "Cmax", "setting": "[16]", "result": 2120, "unit": "ng/mL"}, {"measurement": "AUC(0-t)", "setting": "[16]", "result": 37800, "unit": "ng·h/mL"}, {"measurement": "half-life", "setting": "[16]", "result": 10, "unit": "h"}, {"measurement": "AUC(0-inf)", "setting": "[17]", "result": 20200, "unit": "ng·h/mL"}, {"measurement": "Cmax", "setting": "[17]", "result": 1590, "unit": "ng/mL"}, {"measurement": "half-life", "setting": "[17]", "result": 7.24, "unit": "h"}, {"measurement": "Cmax", "setting": "[18]", "result": 2300, "unit": "ng/mL"}, {"measurement": "AUC(0-t)", "setting": "[18]", "result": 31200, "unit": "ng·h/mL"}, {"measurement": "half-life", "setting": "[18]", "result": 11.1, "unit": "h"}]}]}
